Like-named read-outs stand apart in the source and are kept apart here. Starred links: 1 amine or outer side, 2 acyl side, 3 side chain; linkers in the order of their positions; H or OH if unused. Positions of bridges follow the written chain, without caps; N, C: chain ends. Non-standard residues stand in square brackets, D forms with d. Residues, ends and D or L forms follow the SMILES beside them. ξ: configuration not given here. *: point of attachment. ξAbu(3ξ-NHCOCH2NH2) = CC(NC(=O)CN)C(N)C(=O)O; ξAbu(βξ-NH2) = CC(N[*:3])C(N[*:1])C(=O)[*:2]; X8 = O=C(/C=C/c1ccc(N[*:1])cc1)[*:2]; ξAsp(βξ-Me) = CC(C(=O)O)C(N)C(=O)O; X1 = O=C(Cc1ccc(N[*:1])cc1)[*:2]; Myristoyl = CCCCCCCCCCCCCC(=O)*; Lauroyl = CCCCCCCCCCCC(=O)*; 4Abz = Nc1ccc(C(=O)O)cc1; Pip = O=C(O)[CH]1CCCCN1
System: Staphylococcus aureus (MSSA)
Description: (“Approved Standard M7-A3”).
The antimicrobial lipopeptide derivatives described herein were tested for antimicrobial activity against Gram-positive bacteria as follows. The minimum inhibitory concentrations (MIC) of the antimicrobial lipopeptide derivatives of the invention were determined using NCCLS guidelines M7-A6 (2003) with a slight modification in that doubling serial dilutions were used to dilute the test compounds. The broth phase microdilution method was used. Isolated colonies of Staphylococcus aureus (MSSA) from an 18-24 hour blood agar plate cultures were used to inoculate cation adjusted Mueller-Hinton broth (CAMHB) supplemented with 0.625 mM calcium. […] A negative control containing media alone and a positive growth control containing bacteria with media alone were also included. MICs were determined after incubating the plates at about 37° C. for 24 hours. […] In Tables 1 to 16, R is the core cyclic peptide of amphomycin or aspartocin, which can be in the form of a β-isomer, an anhydro, a dianhydro, or any combination thereof. […] Furthermore, a person of skill in the art will appreciate that all the pounds, or groups of compounds, derived from the various combinations of and substituents shown in Tables 1 to 16, are disclosed by the present the same extent as if each compound or group of compounds was set forth individually.

[1] = S. aureus (MSSA), CAMHB supplemented with 0.625 mM calcium, 24 hours at about 37° C., a range = compound tested multiple times

Row | MIC [1] | MIC (24 h) | Structure (SMILES)
1 | 74/4 μg/mL | – | CCCCCCCCCCCC(=O)NC(CC(=O)O)C(=O)NC1C(=O)N2CCCCC2C(=O)NC(C(C)C(=O)O)C(=O)NC(CC(=O)O)C(=O)NCC(=O)NC(CC(=O)O)C(=O)NCC(=O)NC(C(C)NC(=O)CNC)C(=O)NC(C(C)C)C(=O)N2CCCC2C(=O)NC1C (stereo not drawn) [Compound 74, C12-Amphomycin-9-Sar]
2 | 75/1 μg/mL | – | CCCCCCCCCCCCCCCC(=O)NC(CC(=O)O)C(=O)NC1C(=O)N2CCCCC2C(=O)NC(C(C)C(=O)O)C(=O)NC(CC(=O)O)C(=O)NCC(=O)NC(CC(=O)O)C(=O)NCC(=O)NC(C(C)NC(=O)CNC)C(=O)NC(C(C)C)C(=O)N2CCCC2C(=O)NC1C (stereo not drawn) [Compound 75, C16-Amphomycin-9-Sar]
3 | 76/16 μg/mL | – | CCCCCCCCCC(=O)NC(CC(=O)O)C(=O)NC1C(=O)N2CCCCC2C(=O)NC(C(C)C(=O)O)C(=O)NC(CC(=O)O)C(=O)NCC(=O)NC(CC(=O)O)C(=O)NCC(=O)NC(C(C)NC(=O)CCN)C(=O)NC(C(C)C)C(=O)N2CCCC2C(=O)NC1C (stereo not drawn) [Compound 76, C10-Amphomycin-9-(β-Ala)]
4 | 77/32 μg/mL | – | CCCCCCCCCC(=O)NC(CC(=O)O)C(=O)NC1C(=O)N2CCCCC2C(=O)NC(C(C)C(=O)O)C(=O)NC(CC(=O)O)C(=O)NCC(=O)NC(CC(=O)O)C(=O)NCC(=O)NC(C(C)NC(=O)CNC)C(=O)NC(C(C)C)C(=O)N2CCCC2C(=O)NC1C (stereo not drawn) [Compound 77, C10-Amphomycin-9-Sar]
5 | 78/1 μg/mL | – | CCCCCCCCCCCCCCCCC(=O)NC(CC(=O)O)C(=O)NC1C(=O)N2CCCCC2C(=O)NC(C(C)C(=O)O)C(=O)NC(CC(=O)O)C(=O)NCC(=O)NC(CC(=O)O)C(=O)NCC(=O)NC(C(C)NC(=O)CNC)C(=O)NC(C(C)C)C(=O)N2CCCC2C(=O)NC1C (stereo not drawn) [Compound 78, C17-Amphomycin-9-Sar]
6 | 79/1 μg/mL | – | CCCCCCCCCCCCCCCC(=O)NC(CC(=O)O)C(=O)NC1C(=O)N2CCCCC2C(=O)NC(C(C)C(=O)O)C(=O)NC(CC(=O)O)C(=O)NCC(=O)NC(CC(=O)O)C(=O)NCC(=O)NC(C(C)NC(=O)CCN)C(=O)NC(C(C)C)C(=O)N2CCCC2C(=O)NC1C (stereo not drawn) [Compound 79, C16-Amphomycin-9-(β-Ala)]
7 | – | 32 µg/mL | CCCCCCCCCCCCCCC(=O)NC(CC(=O)O)C(=O)NC1C(=O)N2CCCCC2C(=O)NC(C(C)C(=O)O)C(=O)NC(CC(=O)O)C(=O)NCC(=O)NC(CC(=O)O)C(=O)NCC(=O)NC(C(C)NC(=O)CNC(=O)CCCCC)C(=O)NC(C(C)C)C(=O)N2CCCC2C(=O)NC1C (stereo not drawn) [Compound 81, C15-Amphomycin-9-Gly-C6]
8 | – | 2 µg/mL | CCCCCCCCCCCCCCC(=O)NC(CC(=O)O)C(=O)NC1C(=O)N2CCCCC2C(=O)NC(C(C)C(=O)O)C(=O)NC(CC(=O)O)C(=O)NCC(=O)NC(CC(=O)O)C(=O)NCC(=O)NC(C(C)NC(=O)[C@H](C)N)C(=O)NC(C(C)C)C(=O)N2CCCC2C(=O)NC1C (stereo partly drawn) [Compound 82, C15-Amphomycin-9-Ala]
9 | – | 2 µg/mL | CCCCCCCCCCCCCCCCNC(=O)NC(CC(=O)O)C(=O)NC1C(=O)N2CCCCC2C(=O)NC(C(C)C(=O)O)C(=O)NC(CC(=O)O)C(=O)NCC(=O)NC(CC(=O)O)C(=O)NCC(=O)NC(C(C)NC(=O)CN)C(=O)NC(C(C)C)C(=O)N2CCCC2C(=O)NC1C (stereo not drawn) [Compound 83, CH3—(CH2)15—NH—C(═O)-Amphomycin-9-Gly]
10 | – | 2 to 4 µg/mL | CCCCCCCCCCCCCCCCS(=O)(=O)NC(CC(=O)O)C(=O)NC1C(=O)N2CCCCC2C(=O)NC(C(C)C(=O)O)C(=O)NC(CC(=O)O)C(=O)NCC(=O)NC(CC(=O)O)C(=O)NCC(=O)NC(C(C)NC(=O)CN)C(=O)NC(C(C)C)C(=O)N2CCCC2C(=O)NC1C (stereo not drawn) [Compound 84, CH3—(CH2)15—SO2-Amphomycin-9-Gly]
11 | – | 0.25 µg/mL | CCCCCCCCCCCC(=O)Nc1ccc(CC(=O)NC(CC(=O)O)C(=O)NC2C(=O)N3CCCCC3C(=O)NC(C(C)C(=O)O)C(=O)NC(CC(=O)O)C(=O)NCC(=O)NC(CC(=O)O)C(=O)NCC(=O)NC(C(C)NC(=O)CN)C(=O)NC(C(C)C)C(=O)N3CCCC3C(=O)NC2C)cc1 (stereo not drawn) [Compound 86, C12-(p-Apa)-Amphomycin-9-Gly] (Lauroyl-[X1]D[ξAbu(βξ-NH2)][Pip][ξAsp(βξ-Me)]DGDG[ξAbu(3ξ-NHCOCH2NH2)]VP; lactam 3-C; configuration not given here)
12 | – | 0.5 to 1 µg/mL | CCCCCCCCCCCC(=O)Nc1ccc(/C=C/C(=O)NC(CC(=O)O)C(=O)NC2C(=O)N3CCCCC3C(=O)NC(C(C)C(=O)O)C(=O)NC(CC(=O)O)C(=O)NCC(=O)NC(CC(=O)O)C(=O)NCC(=O)NC(C(C)NC(=O)CN)C(=O)NC(C(C)C)C(=O)N3CCCC3C(=O)NC2C)cc1 (stereo not drawn) [Compound 89, C12-(p-Trans-Cinnamyl)-Amphomycin-9-Gly] (Lauroyl-[X8]D[ξAbu(βξ-NH2)][Pip][ξAsp(βξ-Me)]DGDG[ξAbu(3ξ-NHCOCH2NH2)]VP; lactam 3-C; configuration not given here)
13 | – | 4 µg/mL | CCCCCCCCCCCCCCC(=O)NC(CC(=O)O)C(=O)NC1C(=O)N2CCCCC2C(=O)NC(C(C)C(=O)O)C(=O)NC(CC(=O)O)C(=O)NCC(=O)NC(CC(=O)O)C(=O)NCC(=O)NC(C(C)NC(=O)CCCCCNC(=O)CN)C(=O)NC(C(C)C)C(=O)N2CCCC2C(=O)NC1C (stereo not drawn) [Compound 93, C15-Amphomycin-9-Ahx-Gly]
14 | – | 2 µg/mL | CCCCCCCCCCCCCCC(=O)NC(CC(=O)O)C(=O)NC1C(=O)N2CCCCC2C(=O)NC(C(C)C(=O)O)C(=O)NC(CC(=O)O)C(=O)NCC(=O)NC(CC(=O)O)C(=O)NCC(=O)NC(C(C)NC(=O)CCCNC(=O)CCCN)C(=O)NC(C(C)C)C(=O)N2CCCC2C(=O)NC1C (stereo not drawn) [Compound 94, C15-Amphomycin-9-GABA-GABA]
15 | – | 2 µg/mL | CCCCCCCCCCCCCCC(=O)NC(CC(=O)O)C(=O)NC1C(=O)N2CCCCC2C(=O)NC(C(C)C(=O)O)C(=O)NC(CC(=O)O)C(=O)NCC(=O)NC(CC(=O)O)C(=O)NCC(=O)NC(C(C)NC(=O)[C@@H]2CCCCN2)C(=O)NC(C(C)C)C(=O)N2CCCC2C(=O)NC1C (stereo partly drawn) [Compound 95, C15-Amphomycin-9-hPro]
16 | – | 1 µg/mL | CCCCCCCCCCCCCCC(=O)NC(CC(=O)O)C(=O)NC1C(=O)N2CCCCC2C(=O)NC(C(C)C(=O)O)C(=O)NC(CC(=O)O)C(=O)NCC(=O)NC(CC(=O)O)C(=O)NCC(=O)NC(C(C)NC(=O)[C@H]2CCCCN2)C(=O)NC(C(C)C)C(=O)N2CCCC2C(=O)NC1C (stereo partly drawn) [Compound 96, C15-Amphomycin-9-(D-Pip)]

Row | Structure (SMILES) | MIC [1] | MIC (24 h)
17 | CCCCCCCCCCCC(=O)Nc1ccc(C(=O)NC(CC(=O)O)C(=O)NC2C(=O)N3CCCCC3C(=O)NC(C(C)C(=O)O)C(=O)NC(CC(=O)O)C(=O)NCC(=O)NC(CC(=O)O)C(=O)NCC(=O)NC(C(C)NC(=O)CN)C(=O)NC(C(C)C)C(=O)N3CCCC3C(=O)NC2C)cc1 (stereo not drawn) [Compound 87, C12-PABA-Amphomycin-9-Gly] | – | 0.25 to 0.5 µg/mL
18 | CCCCCCCCCCCCCC(=O)Nc1ccc(C(=O)NCC(=O)NC(CC(=O)O)C(=O)NC2C(=O)N3CCCCC3C(=O)NC(C(C)C(=O)O)C(=O)NC(CC(=O)O)C(=O)NCC(=O)NC(CC(=O)O)C(=O)NCC(=O)NC(C(C)NC(=O)CN)C(=O)NC(C(C)C)C(=O)N3CCCC3C(=O)NC2C)cc1 (stereo not drawn) [Compound 91, C14-PABA-Gly-Amphomycin-9-Gly] ({Myristoyl-4Abz}-GD[ξAbu(βξ-NH2)][Pip][ξAsp(βξ-Me)]DGDG[ξAbu(3ξ-NHCOCH2NH2)]VP; lactam 3-C; configuration not given here) | – | 2 µg/mL
